From ChEMBL document CHEMBL1201862, “PubChem BioAssay data set” (2004)
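Method: 48-hour compound exposure of cells in 96-well plates, five concentrations, linear interpolation of endpoints. GI50 marks 50% less growth.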 Active and inactive are the calls of the source. No stated cut-off is given here; in the data, active = GI50 up to about 1.1 µM and inactive = higher.

How the values were obtained:
Experiment in all cases: NCI tumour cell line growth inhibition, 48 h
SK-OV-3 = tested on: SK-OV-3
HCT-15 = tested on: HCT-15
OVCAR-8 = tested on: OVCAR-8
MCF7 = tested on: MCF7
HOP-92 = tested on: HOP-92
NCI-H23 = tested on: NCI-H23
BT-549 = tested on: BT-549
T47D = tested on: T47D
HL-60 = tested on: HL-60
RXF 393 = tested on: RXF 393
COLO 205 = tested on: COLO 205
U-251 = tested on: U-251
SF-295 = tested on: SF-295
HOP-62 = tested on: HOP-62
EKVX = tested on: EKVX
M14 = tested on: M14
NCI-H460 = tested on: NCI-H460
CCRF-CEM = tested on: CCRF-CEM
SF-539 = tested on: SF-539

SMILES	GI50 (SK-OV-3)	GI50 (HCT-15)	GI50 (OVCAR-8)	GI50 (MCF7)	GI50 (HOP-92)	GI50 (NCI-H23)	GI50 (BT-549)	GI50 (T47D)	GI50 (HL-60)	GI50 (RXF 393)	GI50 (COLO 205)	GI50 (U-251)	GI50 (SF-295)	GI50 (HOP-62)	GI50 (EKVX)	GI50 (M14)	GI50 (NCI-H460)	GI50 (CCRF-CEM)	GI50 (SF-539)
O=C1NC(Cc2c[nH]c3ccccc23)C(=O)N2C(c3ccccc3)c3[nH]c4ccccc4c3C[C@@H]12 (stereo partly drawn)	31.3 µM (inactive)	21.7 µM	31.3 µM (inactive)	15.7 µM (inactive)	25.1 µM (inactive)	27.7 µM (inactive)	21.1 µM (inactive)	24.4 µM (inactive)	20.5 µM (inactive)	16 µM (inactive)	21.1 µM (inactive)	19.5 µM (inactive)	15.3 µM (inactive)	17.2 µM (inactive)	22.5 µM (inactive)	21.6 µM (inactive)			
O=C(NNC(=S)Nc1ccc(Cl)cc1)c1cc(-c2ccccc2)nc2ccccc12	7.82 µM (inactive)	3.43 µM	8.11 µM (inactive)	4.01 µM (inactive)	3.59 µM (inactive)	4.94 µM (inactive)	4.6 µM (inactive)	2.33 µM (inactive)		7.93 µM (inactive)	4.99 µM (inactive)	3.51 µM (inactive)	2.52 µM (inactive)	6.12 µM (inactive)		4.97 µM (inactive)	6.22 µM (inactive)	1.66 µM (inactive)	3.69 µM (inactive)
N/C(=N\Nc1ccc(S(N)(=O)=O)cc1)c1cnccn1	> 100 µM (inactive)	> 100 µM	> 100 µM (inactive)	> 100 µM (inactive)	> 100 µM (inactive)	> 100 µM (inactive)	> 100 µM (inactive)	> 100 µM (inactive)	> 100 µM (inactive)	> 100 µM (inactive)	> 100 µM (inactive)	> 100 µM (inactive)	> 100 µM (inactive)	> 100 µM (inactive)	> 100 µM (inactive)	> 100 µM (inactive)	> 100 µM (inactive)	> 100 µM (inactive)	
C/N=C1\OC2=C3C(c4ccccc4)(O/C(=N/C)N(C)C3(c3ccccc3)OC2=O)N1C (stereo not drawn)	> 100 µM (inactive)	> 100 µM	> 100 µM (inactive)	> 100 µM (inactive)		> 100 µM (inactive)	> 100 µM (inactive)	> 100 µM (inactive)	> 100 µM (inactive)		> 100 µM (inactive)	> 100 µM (inactive)	> 100 µM (inactive)	> 100 µM (inactive)	> 100 µM (inactive)	> 100 µM (inactive)	> 100 µM (inactive)	> 100 µM (inactive)	> 100 µM (inactive)
CCN(CCN(CC)C(=O)Nc1ccccc1)C(=O)Nc1ccccc1	> 100 µM (inactive)	> 100 µM	> 100 µM (inactive)	> 100 µM (inactive)	> 100 µM (inactive)	> 100 µM (inactive)	> 100 µM (inactive)	> 100 µM (inactive)	> 100 µM (inactive)	> 100 µM (inactive)	> 100 µM (inactive)	> 100 µM (inactive)	> 100 µM (inactive)	> 100 µM (inactive)	> 100 µM (inactive)	> 100 µM (inactive)	> 100 µM (inactive)	> 100 µM (inactive)	
COC1O[C@H]2[C@H]3[C@@H]1[C@@H](OS(=O)(=O)c1ccc(C)cc1)C(=O)N3C[C@H]2O (stereo partly drawn)	> 100 µM (inactive)	> 100 µM	> 100 µM (inactive)	> 100 µM (inactive)		> 100 µM (inactive)	> 100 µM (inactive)	64.4 µM (inactive)		17.9 µM (inactive)	> 100 µM (inactive)	> 100 µM (inactive)	> 100 µM (inactive)	> 100 µM (inactive)	> 100 µM (inactive)	> 100 µM (inactive)	> 100 µM (inactive)		> 100 µM (inactive)
CN1CCN(C(=S)N(C(=O)c2ccco2)C2CCCCC2)CC1		> 100 µM	> 100 µM (inactive)	> 100 µM (inactive)	> 100 µM (inactive)	> 100 µM (inactive)	> 100 µM (inactive)	> 100 µM (inactive)	> 10 µM (inactive)	> 100 µM (inactive)	> 100 µM (inactive)	> 100 µM (inactive)	> 100 µM (inactive)			> 100 µM (inactive)	> 100 µM (inactive)	> 100 µM (inactive)	
C=C(C)C(=O)O[C@H]1C/C(CO)=C/CCC(=C)C(OC(C)=O)[C@H]2OC(=O)C(=C)[C@H]12 (stereo partly drawn)	44.9 µM (inactive)	2.3 µM	16.2 µM (inactive)	4.39 µM (inactive)		10.3 µM (inactive)	4.41 µM (inactive)	6.95 µM (inactive)	3.09 µM (inactive)		4.5 µM (inactive)	17.8 µM (inactive)	23.7 µM (inactive)	26.2 µM (inactive)	> 10 µM (inactive)	3.49 µM (inactive)	17.1 µM (inactive)	1.6 µM (inactive)	13.6 µM (inactive)
Cc1cc(O)c2c(c1)C(=O)C=C(Br)C2=O	> 100 µM (inactive)	10.2 µM	19.6 µM (inactive)	7.82 µM (inactive)	13.8 µM (inactive)	17.1 µM (inactive)	16.9 µM (inactive)	5.68 µM (inactive)	0.724 µM (active)		6.32 µM (inactive)	29.7 µM (inactive)	36 µM (inactive)	> 63.5 µM (inactive)	24.8 µM (inactive)	15.8 µM (inactive)	19.9 µM (inactive)	0.255 µM (active)	16 µM (inactive)
Cc1cc(SCC(=O)c2ccccc2)nc2ccccc12		> 100 µM	> 100 µM (inactive)	> 100 µM (inactive)	> 100 µM (inactive)	> 100 µM (inactive)	> 100 µM (inactive)	> 100 µM (inactive)	> 100 µM (inactive)	> 100 µM (inactive)	> 100 µM (inactive)	> 100 µM (inactive)	> 100 µM (inactive)	88.9 µM (inactive)	8.11 µM (inactive)	92.3 µM (inactive)	> 100 µM (inactive)		> 100 µM (inactive)
CCOC(=O)C1CCCc2sc(N)c(C#N)c21 (stereo not drawn)		> 100 µM	> 100 µM (inactive)	> 100 µM (inactive)	70.6 µM (inactive)	> 100 µM (inactive)	55.5 µM (inactive)	> 100 µM (inactive)	> 100 µM (inactive)	> 100 µM (inactive)	> 100 µM (inactive)	> 100 µM (inactive)		> 100 µM (inactive)	57.3 µM (inactive)	> 100 µM (inactive)	> 100 µM (inactive)		
CC1CCC2c3c([nH]c4ccccc34)C3C(=O)N(C4CCCCC4)C(=O)C3C2C1 (stereo not drawn)	18 µM (inactive)	49.8 µM	15.4 µM (inactive)	> 10 µM (inactive)	21 µM (inactive)	23.7 µM (inactive)	14.1 µM (inactive)		> 100 µM (inactive)	13.7 µM (inactive)	> 100 µM (inactive)	12.7 µM (inactive)	16.3 µM (inactive)	14.4 µM (inactive)	14.8 µM (inactive)	23.7 µM (inactive)	26 µM (inactive)	57.7 µM (inactive)	21.9 µM (inactive)
COC(=O)c1ccc(NCC2=CC(=O)C=CC2=O)cc1O	20.4 µM (inactive)	16.5 µM	15.5 µM (inactive)	20.8 µM (inactive)	2.92 µM (inactive)	17.9 µM (inactive)	11.4 µM (inactive)	8.43 µM (inactive)		19.9 µM (inactive)	13.2 µM (inactive)	36.5 µM (inactive)	17.7 µM (inactive)	18.1 µM (inactive)	17.7 µM (inactive)	20.9 µM (inactive)	21 µM (inactive)	5.32 µM (inactive)	13.5 µM (inactive)
C=C1CC(C)(COc2ccc3c(C)c(Cl)c(=O)oc3c2)OC1=O (stereo not drawn)	4.88 µM (inactive)	2.03 µM	2.75 µM (inactive)	1.24 µM (inactive)	1.06 µM (active)	1.21 µM (inactive)	1.31 µM (inactive)	0.361 µM (active)	0.12 µM (active)		0.729 µM (active)	7.82 µM (inactive)	6.12 µM (inactive)	10.3 µM (inactive)	5.9 µM (inactive)	1.26 µM (inactive)	6.97 µM (inactive)	0.331 µM (active)	3.61 µM (inactive)
CCN(CC(O)COc1ccc2c(c1)[n+]([O-])nc(N)[n+]2[O-])C(C)=O (stereo not drawn)	> 100 µM (inactive)	> 100 µM	59.3 µM (inactive)	91 µM (inactive)		91.2 µM (inactive)	> 100 µM (inactive)	20.2 µM (inactive)	> 100 µM (inactive)		3.7 µM (inactive)	> 100 µM (inactive)	> 100 µM (inactive)	> 100 µM (inactive)	> 100 µM (inactive)	> 100 µM (inactive)	> 100 µM (inactive)	72.4 µM (inactive)	> 100 µM (inactive)
CN1C(=O)C(=CNc2ccccc2Cl)C(=O)N(C)C1=O	40.8 µM (inactive)	17.9 µM	> 100 µM (inactive)	24 µM (inactive)	> 100 µM (inactive)	> 100 µM (inactive)	> 100 µM (inactive)	20.1 µM (inactive)		15.1 µM (inactive)	> 100 µM (inactive)	> 100 µM (inactive)	17.7 µM (inactive)	19.8 µM (inactive)	> 100 µM (inactive)	21.9 µM (inactive)	15.5 µM (inactive)	14.6 µM (inactive)	20.6 µM (inactive)
